Data as given in patent US20180303853A1, “COMPOSITIONS AND METHODS FOR TREATING BACTERIAL INFECTIONS USING CEFTAROLINE” (priority 2017, published 2018).

Key:
[1] = Four pooled controlled comparative Phase 3 clinical studies (two cSSSI, two CABP), safety; conditions: pooled Phase 3 studies
Description: Ceftaroline fosamil was evaluated in four controlled comparative Phase 3 clinical studies (two in cSSSI and two in CABP).

[2] = test system: complicated skin and skin structure infections (cSSSI); experiment: Two Phase 3 studies in cSSSI, clinical cure at TOC; format: in vivo, human; conditions: Integrated Studies, CE population, 5 to 14 days of therapy
[3] = test system: MRSA (methicillin-resistant); format: in vivo, Staphylococcus aureus; conditions: cSSSI, ME patients
Description: (§1) A total of 1396 adults with clinically documented complicated skin and skin structure infections (cSSSI) were enrolled in two randomized, multi-center, multinational, double-blind, studies comparing 600 mg ceftaroline fosamil administered intravenously over 1 hour every 12 hours to vancomycin plus aztreonam [1 g vancomycin administered intravenously over 1 hour followed by 1 g aztreonam administered intravenously over 1 hour every 12 hours]. Patients with cSSSI (deep/extensive cellulitis, a major abscess, a wound infection [surgical or traumatic], infected insect bites, burns or ulcers, lower extremity infection in patients with diabetes mellitus or peripheral vascular disease), were enrolled in the studies. Treatment duration was […] days. A switch to oral therapy was not allowed. The Modified Intent-to-Treat (MITT) population included all patients who received any amount of study drug according to their randomized treatment group.
(§2) The primary efficacy endpoint was clinical response at the Test of Cure (TOC) visit in the co-primary CE and MITT populations (Table 2). […] In a subgroup analysis (CE population), the comparative clinical cure rates between the ceftaroline group and the vancomycin plus aztreonam group were not affected by age, gender, race, ethnicity, or weight.

[4] = test system: CYP1A2, CYP2B6, CYP2C8, CYP2C9, CYP2CI9, or CYP3A4/5; experiment: CYP induction in human hepatocytes; format: in vitro ADME; conditions: human hepatocytes
[5] = test system: MDRSP (multidrug-resistant); format: in vivo, Streptococcus pneumoniae; conditions: CABP, ME patients
Description: (§3) In both treatment groups of CABP Study 1, two doses of oral clarithromycin (500 mg q12 h), were administered as adjunctive therapy starting on Study Day 1. No adjunctive macrolide therapy was used in CABP Study 2. Patients with new or progressive pulmonary infiltrate(s) on chest radiography and clinical signs and symptoms consistent with CABP with the need for hospitalization and IV therapy were enrolled in the studies. Treatment duration was 5 to 7 days. A switch to oral therapy was not allowed. The Modified Intent-to-Treat Efficacy (MITTE) population, included all patients who received any amount of study drug according to their randomized, treatment group and were in PORT (Pneumonia Outcomes Research Team) Risk Class III or IV.
(§4) The primary efficacy endpoint was the clinical response at the Test of Cure (TOC) visit in the co-primary Ce and MITTE populations (Table 4).

[6] = test system: Community-Acquired Bacterial Pneumonia (CABP); experiment: Two Phase 3 studies in CABP, clinical cure at TOC (single and integrated/combined); format: in vivo, human; conditions: for Treatment Difference (2-sided 95% CI): vs Ceftriaxone
Description: as §3, §4

[7] = test system: complicated skin and skin structure infections (cSSSI); experiment: Two Phase 3 studies in cSSSI, clinical cure at TOC; format: in vivo, human; conditions: for Treatment Difference (2-sided 95% CI): vs Vancomycin/Aztreonam
Description: as §1, §2

[8] = Pharmacokinetics of ceftaroline after IV infusion of ceftaroline fosamil in adults with normal renal function
[9] = Excretion after single IV dose of radiolabeled ceftaroline fosamil in healthy male adults; format: in vivo, human; conditions: single 600 mg IV dose of radiolabeled ceftaroline fosamil
Description: Following administration of a single 600 mg IV dose of radiolabeled ceftaroline fosamil to healthy male adults, approximately 87% of radioactivity was recovered in urine and 6% in feces. The majority of the radioactivity (˜90%) was recovered within 48 hours. Of the radioactivity recovered in urine, approximately 64% was excreted as ceftaroline and approximately 2% as ceftaroline-M-1.

[10] = test system: MSSA (methicillin-susceptible); experiment: Phase 3 cSSSI studies, clinical cure by infecting pathogen; format: in vivo, Staphylococcus aureus; conditions: ME patients
Description: as §1, §2

[11] = test system: MSSA (methicillin-susceptible); experiment: Integrated Phase 3 CABP studies, clinical cure by infecting pathogen; format: in vivo, Staphylococcus aureus; conditions: ME patients
Description: as §3, §4

Streptococcus pyogenes = experiment: Phase 3 cSSSI studies, clinical cure by infecting pathogen; format: in vivo; conditions: ME patients
Description: as §1, §2

Klebsiella pneumoniae [12] = experiment: as above; format: in vivo; conditions: ME patients
Description: as §1, §2

Streptococcus agalactiae = experiment: as above; format: in vivo; conditions: ME patients
Description: as §1, §2

Escherichia coli [13] = experiment: as above; format: in vivo; conditions: ME patients
Description: as §1, §2

Morganella morganii = experiment: as above; format: in vivo; conditions: ME patients
Description: as §1, §2

[14] = test system: Streptococcus dysgalactiae; experiment: as above; format: in vivo; conditions: ME patients
Description: as §1, §2

Klebsiella oxytoca = experiment: as above; format: in vivo; conditions: ME patients
Description: as §1, §2

Staphylococcus aureus [15] = experiment: as above; format: in vivo; conditions: ME patients
Description: as §1, §2

Klebsiella pneumoniae [16] = experiment: Integrated Phase 3 CABP studies, clinical cure by infecting pathogen; format: in vivo; conditions: ME patients
Description: as §3, §4

Escherichia coli [17] = experiment: as above; format: in vivo; conditions: ME patients
Description: as §3, §4

Haemophilus influenzae = experiment: as above; format: in vivo; conditions: ME patients
Description: as §3, §4

Streptococcus pneumoniae = experiment: as above; format: in vivo; conditions: ME patients
Description: as §3, §4

Staphylococcus aureus [18] = experiment: as above; format: in vivo; conditions: ME patients
Description: as §3, §4

[19] = test system: Streptococcus anginosus group; experiment: Phase 3 cSSSI studies, clinical cure by infecting pathogen; format: in vivo, S. anginosus, S. intermedius, and S. constellatus; conditions: ME patients
Description: as §1, §2

[20] = test system: CYP1A1, CYP1A2, CYP2A6, CYP2B6, CYP2C8, CYP2C9, CYP2C19, CYP2D6, CYP2E1 and CYP3A4; experiment: Cytochrome P450 inhibition in human liver microsomes; format: in vitro ADME; conditions: human liver microsomes
[21] = Aqueous solubility of ceftaroline fosamil

CCO/N=C(\C(=O)N[C@@H]1C(=O)N2C(C(=O)[O-])=C(Sc3nc(-c4cc[n+](C)cc4)cs3)CS[C@H]12)c1nsc(NP(=O)(O)O)n1 [Ceftaroline fosamil, (6R,7R)-7-{(2Z)-2-(ethoxyimino)-2-[5-(phosphonoamino)-1,2,4-thiadiazol-3-yl]acetamido}-3-{[4-(1-methylpyridin-1-ium-4-yl)-1,3-thiazol-2-yl]sulfanyl}-8-oxo-5-thia-1-azabicyclo[4.2.0]oct-2-ene-2-carboxylate]
Adverse reaction: Constipation [1]: 2%
Adverse reaction: Diarrhea [1]: 5%
Adverse reaction: Headache [1]: 4%
Adverse reaction: Hypokalemia [1]: 2%
Adverse reaction: Increased transaminases [1]: 2%
Adverse reaction: Insomnia [1]: 3%
Adverse reaction: Nausea [1]: 4%
Adverse reaction: Phlebitis [1]: 2%
Adverse reaction: Pruritus [1]: 2%
Adverse reaction: Rash [1]: 3%
Adverse reaction: Vomiting [1]: 2%
Serious adverse events [1]: 8%
discontinuation due to hypersensitivity (most common adverse event leading to discontinuation) [1]: 0.3%
treatment discontinuations due to adverse events [1]: 4%
Clinical cure rate at TOC [2]: 559/610 (91.6) %
Clinical cure rate by infecting pathogen [3]: 142/152 (93.4%)
induction of CYP isoenzymes [4]: not inducers
Clinical cure rate by infecting pathogen [5]: 4/4 (100%)
Clinical cure rate at TOC ([6]; CABP Study 1, CE population): 194/224 (86.6%)
Clinical cure rate at TOC ([6]; CABP Study 1, MITTE population): 244/291 (83.8%)
Clinical cure rate at TOC ([6]; CABP Study 2, CE population): 193/235 (82.1%)
Clinical cure rate at TOC ([6]; CABP Study 2, MITTE population): 235/289 (81.3%)
Clinical cure rate at TOC ([6]; Integrated Studies, CE population, 5 to 7 days of therapy): 387/459 (84.3%)
Clinical cure rate at TOC ([6]; Integrated Studies, MITTE population): 479/580 (82.6%)
Treatment Difference (2-sided 95% CI) ([6]; CABP Study 1, CE): 8.4 (1.4, 15.4)
Treatment Difference (2-sided 95% CI) ([6]; CABP Study 1, MITTE): 6.2 (−0.2, 12.6)
Treatment Difference (2-sided 95% CI) ([6]; CABP Study 2, CE): 4.9 (−2.5, 12.5)
Treatment Difference (2-sided 95% CI) ([6]; CABP Study 2, MITTE): 5.9 (−1.0, 12.7)
Treatment Difference (2-sided 95% CI) ([6]; Integrated Studies, CE): 6.7 (1.6, 11.8)
Treatment Difference (2-sided 95% CI) ([6]; Integrated Studies, MITTE): 6.0 (1.4, 10.7)
Clinical cure rate at TOC ([7]; Integrated Studies, MITT population): 595/693 (85.9) %
Clinical cure rate at TOC ([7]; cSSSI Study 1, CE population): 288/316 (91.1) %
Clinical cure rate at TOC ([7]; cSSSI Study 1, MITT population): 304/351 (86.6) %
Clinical cure rate at TOC ([7]; cSSSI Study 2, CE population): 271/294 (92.2) %
Clinical cure rate at TOC ([7]; cSSSI Study 2, MITT population): 291/342 (85.1) %
Treatment Difference (2-sided 95% CI) ([7]; Integrated Studies, CE): −1.1 (−4.2, 2.0)
Treatment Difference (2-sided 95% CI) ([7]; Integrated Studies, MITT): 0.3 (−3.4, 4.0)
Treatment Difference (2-sided 95% CI) ([7]; cSSSI Study 1, CE): −2.2 (−6.6, 2.1)
Treatment Difference (2-sided 95% CI) ([7]; cSSSI Study 1, MITT): 1.0 (−4.2, 6.2)
accumulation following multiple IV infusions ([8]; 600 mg every 8 or 12 hours for up to 14 days, normal renal function): No appreciable accumulation
conversion of prodrug in plasma ([8]; appeared to be mediated by a phosphatase enzyme): rapidly converted into bioactive ceftaroline
radioactivity recovered in feces [9]: ~6%
radioactivity recovered in urine [9]: approximately 87%
radioactivity recovered within 48 hours [9]: ~90%
Clinical cure rate by infecting pathogen [10]: 212/228 (93.0%)
Clinical cure rate by infecting pathogen [11]: 18/25 (72.0%)
Clinical cure rate by infecting pathogen (Streptococcus pyogenes): 56/56 (100%)
Clinical cure rate by infecting pathogen (Klebsiella pneumoniae [12]): 17/18 (94.4%)
Clinical cure rate by infecting pathogen (Streptococcus agalactiae): 21/22 (95.5%)
Clinical cure rate by infecting pathogen (Escherichia coli [13]): 20/21 (95.2%)
Clinical cure rate by infecting pathogen (Morganella morganii): 11/12 (91.7%)
Clinical cure rate by infecting pathogen [14]: 13/13 (100%)
Clinical cure rate by infecting pathogen (Klebsiella oxytoca): 10/12 (83.3%)
Clinical cure rate by infecting pathogen (Staphylococcus aureus [15]): 352/378 (93.1%)
Clinical cure rate by infecting pathogen (Klebsiella pneumoniae [16]): 13/13 (100%)
Clinical cure rate by infecting pathogen (Escherichia coli [17]): 10/12 (83.3%)
Clinical cure rate by infecting pathogen (Haemophilus influenzae): 15/18 (83.3%)
Clinical cure rate by infecting pathogen (Streptococcus pneumoniae): 54/63 (85.7%)
Clinical cure rate by infecting pathogen (Staphylococcus aureus [18]): 18/25 (72.0%)
Clinical cure rate by infecting pathogen [19]: 12/13 (92.3%)
inhibition of major cytochrome P450 isoenzymes [20]: neither ceftaroline fosamil nor ceftaroline inhibits
aqueous solubility [21]: 8-30 mg per ml
